What was measured:
Assay type in all cases: cell-based, human
C4-2B cells = assay: C4-2B cell proliferation, ASO in combination with MDV3100 (Example 21); details: for Proliferation (% untreated control) in C4-2B without MDV-3100: 5 days
Procedure: C4-2B cells were plated at 1,000 cells per well. […] ISIS 549148 was included as a negative control. […] After a treatment period of 5 days, the proliferative capacity of the cancer cells was measured with CellTiter 96® AQueous One Solution Cell Proliferation kit (Promega), following the manufacturer's instructions. […]

22RV1 cells = assay: 22RV1 cell proliferation, ASO in combination with MDV3100 (Example 22); details: for Proliferation (% untreated control) in 22RV1 without MDV-3100: RNAiMAX, 3 days
Procedure: 22RV1 cells were plated at 2,000 cells per well in 5% CSS medium for 48 hours. […] ISIS 549148 was included as a negative control. […] After a treatment period of 3 days, the proliferative capacity of the cancer cells was measured with CellTiter 96® AQueous One Solution Cell Proliferation kit (Promega), following the manufacturer's instructions. Results are presented in Tables 58-62 as percent inhibition of proliferation, relative to non-treated cells.

LNCaP cells = assay: LNCaP cell proliferation (complete or CSS+DHT medium); details: 5 days; for Proliferation (% untreated control) in LNCaP cells cultured in CSS + DHT medium: CSS + 1 nM DHT medium
Procedure: After a treatment period of 5 days in complete medium or CSS+1 nM DHT medium, the proliferative capacity of the cancer cells was measured with using CellTiter 96® AQueous One Solution or CellTiter-Glo® solution Cell Proliferation kit (Promega), following the manufacturer's instructions. […] Treatment with ISIS oligonucleotides in CSS+DHT medium reduced the proliferative capacity to a greater extent than treatment with MVD-3100. The proliferative capacity of cells cultured in CSS medium without DHT is 17% of untreated control levels.

TMPRSS2 mRNA = assay: TMPRSS2 expression in C4-2 cells; details: 48 hrs; for Percent inhibition of TMPRSS2 expression: C4-2 cells, CSS + DHT medium
Procedure: Cells were plated at 1,000 cells per well. […] After an incubation period of 48 hrs, RNA levels of AR, PSA and TMPRSS2 were measured.
Cells were plated at 2,000 cells per well and cultured in CSS media with 1 nM DHT. […] After an incubation period of 48 hrs, RNA levels of AR, PSA and TMPRSS2 were measured.

C4-2 cells = assay: C4-2 cell proliferation (complete or CSS+DHT medium); details: C4-2 cells, 5 days
Procedure: After a treatment period of 5 days in complete medium or CSS+1 nM DHT medium, the proliferative capacity of the cancer cells was measured with using CellTiter 96® AQueous One Solution or CellTiter-Glo® Cell Proliferation kit (Promega), following the manufacturer's instructions. […] The proliferative capacity of cells cultured in CSS medium without DHT is 17% of untreated control levels.

GGCTACTACGCCGTCA (3-10-3 (S)-cEt gapmer, chemistry not fully specified) [ISIS 549148, reference compound]
Proliferation (% untreated control) in C4-2B with 0.08 μM MDV-3100 (C4-2B cells; ASO dose 0.04 μM + 0.08 μM MDV-3100): 125 % untreated control | Proliferation (% untreated control) in C4-2B with 0.4 μM MDV-3100 (C4-2B cells; ASO dose 0.04 μM + 0.4 μM MDV-3100): 110 % untreated control | Proliferation (% untreated control) in C4-2B with 2.0 μM MDV-3100 (C4-2B cells; ASO dose 0.04 μM + 2.0 μM MDV-3100): 40 % untreated control | Proliferation (% untreated control) in C4-2B with […] MDV-3100 (C4-2B cells; ASO dose 0.04 μM + […] MDV-3100): 107 % untreated control | Proliferation (% untreated control) in C4-2B without MDV-3100 (C4-2B cells; ASO dose 0.04 μM): 117 % untreated control | Proliferation (% untreated control) in C4-2B with 0.08 μM MDV-3100 (C4-2B cells; ASO dose 0.08 μM + 0.08 μM MDV-3100): 84 % untreated control | Proliferation (% untreated control) in C4-2B with 0.4 μM MDV-3100 (C4-2B cells; ASO dose 0.08 μM + 0.4 μM MDV-3100): 89 % untreated control | Proliferation (% untreated control) in C4-2B with 2.0 μM MDV-3100 (C4-2B cells; ASO dose 0.08 μM + 2.0 μM MDV-3100): 47 % untreated control | Proliferation (% untreated control) in C4-2B with […] MDV-3100 (C4-2B cells; ASO dose 0.08 μM + […] MDV-3100): 110 % untreated control | Proliferation (% untreated control) in C4-2B without MDV-3100 (C4-2B cells; ASO dose 0.08 μM): 111 % untreated control | Proliferation (% untreated control) in C4-2B with 0.08 μM MDV-3100 (C4-2B cells; ASO dose 0.2 μM + 0.08 μM MDV-3100): 123 % untreated control | Proliferation (% untreated control) in C4-2B with 0.4 μM MDV-3100 (C4-2B cells; ASO dose 0.2 μM + 0.4 μM MDV-3100): 88 % untreated control | Proliferation (% untreated control) in C4-2B with 2.0 μM MDV-3100 (C4-2B cells; ASO dose 0.2 μM + 2.0 μM MDV-3100): 52 % untreated control | Proliferation (% untreated control) in C4-2B with […] MDV-3100 (C4-2B cells; ASO dose 0.2 μM + […] MDV-3100): 124 % untreated control | Proliferation (% untreated control) in C4-2B without MDV-3100 (C4-2B cells; ASO dose 0.2 μM): 118 % untreated control | Proliferation (% untreated control) in C4-2B with 0.08 μM MDV-3100 (C4-2B cells; ASO dose 1.0 μM + 0.08 μM MDV-3100): 114 % untreated control | Proliferation (% untreated control) in C4-2B with 0.4 μM MDV-3100 (C4-2B cells; ASO dose 1.0 μM + 0.4 μM MDV-3100): 88 % untreated control | Proliferation (% untreated control) in C4-2B with 2.0 μM MDV-3100 (C4-2B cells; ASO dose 1.0 μM + 2.0 μM MDV-3100): 59 % untreated control | Proliferation (% untreated control) in C4-2B with […] MDV-3100 (C4-2B cells; ASO dose 1.0 μM + […] MDV-3100): 103 % untreated control | Proliferation (% untreated control) in C4-2B without MDV-3100 (C4-2B cells; ASO dose 1.0 μM): 126 % untreated control | Proliferation (% untreated control) in 22RV1 cells with 0.04 μM MDV-3100 (22RV1 cells; ASO dose 0.4 nM + 0.04 μM MDV-3100): 106 % untreated control | Proliferation (% untreated control) in 22RV1 cells with 0.2 μM MDV-3100 (22RV1 cells; ASO dose 0.4 nM + 0.2 μM MDV-3100): 101 % untreated control | Proliferation (% untreated control) in 22RV1 cells with 1.0 μM MDV-3100 (22RV1 cells; ASO dose 0.4 nM + 1.0 μM MDV-3100): 106 % untreated control | Proliferation (% untreated control) in 22RV1 cells with 5.0 μM MDV-3100 (22RV1 cells; ASO dose 0.4 nM + 5.0 μM MDV-3100): 96 % untreated control | Proliferation (% untreated control) in 22RV1 without MDV-3100 (22RV1 cells; ASO dose 0.4 nM): 109 % untreated control | Proliferation (% untreated control) in 22RV1 cells with 0.04 μM MDV-3100 (22RV1 cells; ASO dose 1.34 nM + 0.04 μM MDV-3100): 106 % untreated control | Proliferation (% untreated control) in 22RV1 cells with 0.2 μM MDV-3100 (22RV1 cells; ASO dose 1.34 nM + 0.2 μM MDV-3100): 115 % untreated control | Proliferation (% untreated control) in 22RV1 cells with 1.0 μM MDV-3100 (22RV1 cells; ASO dose 1.34 nM + 1.0 μM MDV-3100): 95 % untreated control | Proliferation (% untreated control) in 22RV1 cells with 5.0 μM MDV-3100 (22RV1 cells; ASO dose 1.34 nM + 5.0 μM MDV-3100): 102 % untreated control | Proliferation (% untreated control) in 22RV1 without MDV-3100 (22RV1 cells; ASO dose 1.34 nM): 109 % untreated control | Proliferation (% untreated control) in 22RV1 cells with 0.04 μM MDV-3100 (22RV1 cells; ASO dose 4.0 nM + 0.04 μM MDV-3100): 100 % untreated control | Proliferation (% untreated control) in 22RV1 cells with 0.2 μM MDV-3100 (22RV1 cells; ASO dose 4.0 nM + 0.2 μM MDV-3100): 110 % untreated control | Proliferation (% untreated control) in 22RV1 cells with 1.0 μM MDV-3100 (22RV1 cells; ASO dose 4.0 nM + 1.0 μM MDV-3100): 98 % untreated control | Proliferation (% untreated control) in 22RV1 cells with 5.0 μM MDV-3100 (22RV1 cells; ASO dose 4.0 nM + 5.0 μM MDV-3100): 98 % untreated control | Proliferation (% untreated control) in 22RV1 without MDV-3100 (22RV1 cells; ASO dose 4.0 nM): 109 % untreated control | Proliferation (% untreated control) in 22RV1 cells with 0.04 μM MDV-3100 (22RV1 cells; ASO dose 13.4 nM + 0.04 μM MDV-3100): 85 % untreated control | Proliferation (% untreated control) in 22RV1 cells with 0.2 μM MDV-3100 (22RV1 cells; ASO dose 13.4 nM + 0.2 μM MDV-3100): 96 % untreated control | Proliferation (% untreated control) in 22RV1 cells with 1.0 μM MDV-3100 (22RV1 cells; ASO dose 13.4 nM + 1.0 μM MDV-3100): 82 % untreated control | Proliferation (% untreated control) in 22RV1 cells with 5.0 μM MDV-3100 (22RV1 cells; ASO dose 13.4 nM + 5.0 μM MDV-3100): 85 % untreated control | Proliferation (% untreated control) in 22RV1 without MDV-3100 (22RV1 cells; ASO dose 13.4 nM): 99 % untreated control | Proliferation (% untreated control) in LNCaP cells cultured in CSS + DHT medium (LNCaP cells; 0.04 μM): 112 % untreated control | Proliferation (% untreated control) in LNCaP cells cultured in CSS + DHT medium (LNCaP cells; 0.2 μM): 96 % untreated control | Proliferation (% untreated control) in LNCaP cells cultured in CSS + DHT medium (LNCaP cells; 1 μM): 95 % untreated control | Proliferation (% untreated control) in LNCaP cells cultured in CSS + DHT medium (LNCaP cells; 5.0 μM): 89 % untreated control | Proliferation (% untreated control) in LNCaP cells cultured in complete medium (LNCaP cells; 0.04 μM): 101 % untreated control | Proliferation (% untreated control) in LNCaP cells cultured in complete medium (LNCaP cells; 0.2 μM): 95 % untreated control | Proliferation (% untreated control) in LNCaP cells cultured in complete medium (LNCaP cells; 1 μM): 94 % untreated control | Proliferation (% untreated control) in LNCaP cells cultured in complete medium (LNCaP cells; 5.0 μM): 110 % untreated control | Percent inhibition of TMPRSS2 expression (TMPRSS2 mRNA; 0.04 μM): 3% | Percent inhibition of TMPRSS2 expression (TMPRSS2 mRNA; 0.2 μM): 0% | Percent inhibition of TMPRSS2 expression (TMPRSS2 mRNA; 1 μM): 22% | Percent inhibition of TMPRSS2 expression (TMPRSS2 mRNA; 5.0 μM): 28% | Percent inhibition of TMPRSS2 expression in C4-2 cells cultured in complete medium (TMPRSS2 mRNA; 0.04 μM): 2% | Percent inhibition of TMPRSS2 expression in C4-2 cells cultured in complete medium (TMPRSS2 mRNA; 0.2 μM): 7% | Percent inhibition of TMPRSS2 expression in C4-2 cells cultured in complete medium (TMPRSS2 mRNA; 1 μM): 10% | Percent inhibition of TMPRSS2 expression in C4-2 cells cultured in complete medium (TMPRSS2 mRNA; 5.0 μM): 0% | Proliferation (% untreated control) (C4-2 cells; CSS + DHT medium, 0.04 μM): 102 % untreated control | Proliferation (% untreated control) (C4-2 cells; CSS + DHT medium, 0.2 μM): 82 % untreated control | Proliferation (% untreated control) (C4-2 cells; CSS + DHT medium, 1 μM): 82 % untreated control | Proliferation (% untreated control) (C4-2 cells; CSS + DHT medium, 5.0 μM): 91 % untreated control | Proliferation (% untreated control) (C4-2 cells; complete medium, 0.04 μM): 106 % untreated control | Proliferation (% untreated control) (C4-2 cells; complete medium, 0.2 μM): 112 % untreated control | Proliferation (% untreated control) (C4-2 cells; complete medium, 1 μM): 91 % untreated control | Proliferation (% untreated control) (C4-2 cells; complete medium, 5.0 μM): 94 % untreated control

— patent USRE48461E1, “Modulation of androgen receptor expression” (Ionis Pharmaceuticals, Inc., priority 2012, dated 2021)
